Assay results published in publication PMC11808136, “Screening and identification of host signaling pathways for alleviating influenza-induced production of pro-inflammatory cytokines, IP-10, IL-8, and MCP-1, using a U937 cell-based influenza model” (Frontiers in Microbiology, 2025).
Read-outs that look alike come from different tables or passages of the source.

Columns and labels:
[1] = test system: IL-8 production in influenza virus-infected U937 cells (H1N1); experiment: cells; format: cell-based, Human; conditions: for EC50: read-out: EC50 IL-8
[2] = test system: IP-10 production in influenza virus-infected U937 cells (H1N1); experiment: cells; format: cell-based
[3] = test system: MCP-1 production in influenza virus-infected U937 cells (H1N1); experiment: cells; format: cell-based
[4] = test system: IL-8 production in influenza virus-infected U937 cells (H3N2); experiment: cells; format: cell-based, Human
[5] = test system: IP-10 production in influenza virus-infected U937 cells (H3N2); experiment: cells; format: cell-based, Human
[6] = test system: MCP-1 production in influenza virus-infected U937 cells (H3N2); experiment: cells; format: cell-based, Human
[7] = test system: IL-8 production in influenza virus-infected U937 cells (H7N8); experiment: cells; format: cell-based, Human
[8] = test system: IP-10 production in influenza virus-infected U937 cells (H7N8); experiment: cells; format: cell-based, Human
[9] = test system: MCP-1 production in influenza virus-infected U937 cells (H7N8); experiment: cells; format: cell-based, Human
JAK2 = target: T1, JAK2 (Homo sapiens, UniProt O60674); experiment: Cell-free kinase activity assay, JAK2; format: biochemical
T1 construct: purchased KinaseProfiler (Eurofin, Brussels, Belgium)

p38 = p38 (Homo sapiens, UniProt Q16539); experiment: Cell-free kinase activity assay, p38; format: biochemical; conditions: for p38 kinase activity in vitro: cell-free; for IC50: p38 kinases in vitro
[10] = test system: phosphorylation of p38 (p-p38); experiment: Western blot of phosphorylated p38 in influenza-infected U937 cells; format: cell-based, Human; conditions: for phosphorylation of p38: 24 h post-infection, western blot, cellular model; for IC50: Homo sapiens, U-937, read-out: IC50 p-p38
Protocol: (§1) Figure 6 TKIs repress cytokine production by suppressing the p38 pathway. […] Cells were lysed 24 h post-infection, and the levels of phosphorylated p38 and ERK (p-p38 and p-ERK) and total p38 and ERK were assessed by western blot. A quantification of phosphorylated p38 levels for each drug treatment was included in the right panel of each figure.
(§2) Cells were homogenized in RIPA lysis buffer containing a 1% protease inhibitor cocktail (Roche) to extract total protein. Equal amounts of protein homogenates were separated by SDS-PAGE (Bio-Rad) and transferred onto polyvinylidene difluoride membranes (pore size […]; Bio-Rad). The membranes were then blotted with monoclonal antibodies against GAPDH (1:1000, ZSGB-BIO), p38, phosphor-p38, ERK, phospho-ERK, STAT1, phosphor-STAT1 (1:1000; Cell Signaling Technology), STAT3, and phosphor-STAT3 (1:1000; Cell Signaling Technology), respectively. Protein levels were detected with horseradish peroxidase-tagged secondary antibodies and enhanced chemiluminescence western blot reagents (Advansta), followed by visualization using an enhanced chemiluminescence system (AlphaEase FluorChem System, Alpha Innotech Corp.). Bands were quantified using ImageJ (Ver. 1.46; NIH, Bethesda, MD).

[11] = test system: STAT1 phosphorylation (p-STAT1); format: cell-based, Human
U937 cells = conditions: for maximum non-toxic concentration: human
in vitro = conditions: human
JAK1 = JAK1 (Homo sapiens, UniProt P23458); experiment: Cell-free kinase activity assay, JAK1; conditions: for JAK1 activity: cell-free kinase assay
[12] = test system: ERK phosphorylation (p-ERK); experiment: Western blot of phosphorylated ERK in influenza-infected U937 cells; format: cell-based, Human; conditions: 24 h post-infection, western blot
Protocol: Figure 5 Raf/MEK/ERK and p38 signal pathways are involved in the regulation of cytokines in U937 cells. (A–C) Determination of inhibition rates on IL-8, IP-10, and MCP-1 by each compound in the MAPK group and the distribution of targets between subgroups. U937 cells were infected with influenza A/PuertoRico/8/1934 virus (MOI = 0.1) in the presence of 10 μM of each inhibitor and then incubated at 37°C for 48 h. The distribution of the targets of all the inhibitors in the MAPK group was then analyzed and categorized into subgroups. […] The supernatants were harvested 48 h post-infection, and the levels of IL-8, MCP-1, and IP-10 were measured by AlphaLISA. (E) The cells were treated as in (C) except being lysed 24 h post-infection, and the levels of phosphorylated STAT1, p38, ERK (p-STAT1, p-p38, p-ERK), total STAT1, p38, ERK, and viral protein HA were assessed by western blot. (F) A quantitative analysis of the relative levels of the phosphorylated STAT1, p38, ERK (p-STAT1, p-p38, p-ERK) in (E). The data are representative of at least three independent experiments. n.s. no significance; *p < 0.05; **p < 0.01; ***p < 0.001.
as §1
as §2, with “The membranes were then blotted with monoclonal antibodies against GAPDH (1:1000, ZSGB-BIO), p38, phosphor-p38, ERK, phospho-ERK, STAT1, phosphor-STAT1 (1:1000; Cell Signaling Technology), STAT3, and phosphor-STAT3 (1:1000; Cell Signaling Technology), respectively.” left out

[13] = Homo sapiens, U-937, secondary screen, Supplemental Table 1
[14] = Homo sapiens, U-937, read-out: EC50 IP-10
[15] = Homo sapiens, U-937, read-out: IC50 IP-10
[16] = Homo sapiens, U-937, read-out: IC50 MCP-1
[17] = Homo sapiens, U-937, read-out: EC50 IL-8
[18] = Homo sapiens, U-937, read-out: EC50 MCP-1
[19] = CC50, secondary screen, Supplemental Table 1
[20] = Homo sapiens, U-937, secondary screen, Supplemental Table 1; read-out: EC50 IP-10
[21] = Homo sapiens, U-937, secondary screen, Supplemental Table 1; read-out: EC50 MCP-1
[22] = U937 cells, Table 1 section H1N1
[23] = secondary screen, Supplemental Table 1

Chain of p38 (Q16539 whole entry): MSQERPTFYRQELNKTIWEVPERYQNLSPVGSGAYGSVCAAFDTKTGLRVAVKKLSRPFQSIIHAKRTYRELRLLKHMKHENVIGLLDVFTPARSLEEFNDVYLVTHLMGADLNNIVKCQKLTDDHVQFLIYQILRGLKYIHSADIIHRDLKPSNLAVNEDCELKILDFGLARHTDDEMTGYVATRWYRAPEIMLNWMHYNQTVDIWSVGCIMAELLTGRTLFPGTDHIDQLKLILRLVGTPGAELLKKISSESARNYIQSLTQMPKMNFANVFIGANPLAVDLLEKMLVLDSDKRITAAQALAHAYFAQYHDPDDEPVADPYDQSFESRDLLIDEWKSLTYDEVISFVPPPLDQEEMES
Chain of JAK1 (P23458 whole entry): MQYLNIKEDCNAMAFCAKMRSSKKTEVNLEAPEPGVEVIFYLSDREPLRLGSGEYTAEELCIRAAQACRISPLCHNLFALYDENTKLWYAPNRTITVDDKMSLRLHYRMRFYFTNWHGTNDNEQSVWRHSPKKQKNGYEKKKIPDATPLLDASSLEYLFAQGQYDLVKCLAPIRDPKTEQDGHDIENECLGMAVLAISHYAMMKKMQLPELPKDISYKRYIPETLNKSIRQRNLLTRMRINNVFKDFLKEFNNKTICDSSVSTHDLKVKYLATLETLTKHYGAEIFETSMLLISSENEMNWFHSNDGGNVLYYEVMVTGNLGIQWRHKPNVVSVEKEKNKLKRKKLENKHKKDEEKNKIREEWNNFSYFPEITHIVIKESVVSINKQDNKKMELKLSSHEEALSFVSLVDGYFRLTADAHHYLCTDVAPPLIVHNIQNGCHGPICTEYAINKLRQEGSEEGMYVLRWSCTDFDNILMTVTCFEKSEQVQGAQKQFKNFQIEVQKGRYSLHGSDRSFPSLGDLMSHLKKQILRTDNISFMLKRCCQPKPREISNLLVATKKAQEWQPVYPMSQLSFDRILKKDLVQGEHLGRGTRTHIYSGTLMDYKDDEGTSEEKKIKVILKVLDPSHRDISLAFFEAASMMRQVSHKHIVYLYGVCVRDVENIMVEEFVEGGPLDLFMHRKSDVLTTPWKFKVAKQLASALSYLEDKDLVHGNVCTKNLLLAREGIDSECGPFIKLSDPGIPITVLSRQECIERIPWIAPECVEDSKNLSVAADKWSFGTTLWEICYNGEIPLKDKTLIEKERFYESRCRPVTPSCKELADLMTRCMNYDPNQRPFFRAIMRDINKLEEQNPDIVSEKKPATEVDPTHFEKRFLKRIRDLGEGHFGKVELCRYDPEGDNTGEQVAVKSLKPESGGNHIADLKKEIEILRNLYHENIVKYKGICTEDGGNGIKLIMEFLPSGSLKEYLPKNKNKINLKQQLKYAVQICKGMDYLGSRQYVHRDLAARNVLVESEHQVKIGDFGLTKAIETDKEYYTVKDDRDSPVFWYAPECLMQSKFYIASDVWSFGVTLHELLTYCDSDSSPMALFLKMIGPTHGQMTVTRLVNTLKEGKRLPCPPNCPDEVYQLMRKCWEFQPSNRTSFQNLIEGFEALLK
T1 sequence (O60674 whole entry): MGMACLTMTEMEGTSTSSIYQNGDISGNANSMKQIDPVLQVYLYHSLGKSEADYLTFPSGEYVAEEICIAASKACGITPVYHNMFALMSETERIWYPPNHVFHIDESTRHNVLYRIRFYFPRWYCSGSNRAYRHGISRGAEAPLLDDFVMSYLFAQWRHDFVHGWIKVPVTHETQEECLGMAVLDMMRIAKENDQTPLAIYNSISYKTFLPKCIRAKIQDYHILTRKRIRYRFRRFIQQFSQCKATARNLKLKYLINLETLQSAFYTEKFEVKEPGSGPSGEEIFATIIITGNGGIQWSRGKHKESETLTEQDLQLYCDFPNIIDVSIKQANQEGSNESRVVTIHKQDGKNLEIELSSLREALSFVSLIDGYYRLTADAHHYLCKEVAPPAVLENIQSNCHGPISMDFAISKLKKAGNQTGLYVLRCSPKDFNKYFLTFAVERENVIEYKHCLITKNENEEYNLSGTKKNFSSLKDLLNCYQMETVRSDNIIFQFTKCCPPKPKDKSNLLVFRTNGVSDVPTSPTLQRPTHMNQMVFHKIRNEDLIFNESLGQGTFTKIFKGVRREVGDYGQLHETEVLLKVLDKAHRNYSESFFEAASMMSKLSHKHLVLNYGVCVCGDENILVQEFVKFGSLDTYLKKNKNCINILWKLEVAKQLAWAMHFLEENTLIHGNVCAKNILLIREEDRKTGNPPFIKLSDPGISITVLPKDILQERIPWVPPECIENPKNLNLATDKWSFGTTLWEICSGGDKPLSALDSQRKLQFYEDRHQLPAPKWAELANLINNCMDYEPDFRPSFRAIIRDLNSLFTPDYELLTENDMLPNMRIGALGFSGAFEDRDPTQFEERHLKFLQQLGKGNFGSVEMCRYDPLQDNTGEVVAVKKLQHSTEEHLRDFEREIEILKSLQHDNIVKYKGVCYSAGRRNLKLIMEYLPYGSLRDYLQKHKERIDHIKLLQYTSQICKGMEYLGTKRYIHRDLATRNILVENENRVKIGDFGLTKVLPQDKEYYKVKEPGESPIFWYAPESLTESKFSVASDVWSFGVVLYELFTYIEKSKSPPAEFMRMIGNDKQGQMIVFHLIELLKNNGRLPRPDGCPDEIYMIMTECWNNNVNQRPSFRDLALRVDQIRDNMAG

Cc1cc(Nc2nc(N[C@@H](C)c3ncc(F)cn3)ncc2Cl)n[nH]1 [AZD1480]
IC50 ([1]; Homo sapiens, U-937): 7.5 µM
EC50 [1, 13]: 0.11 µM
EC50 ([1]; Homo sapiens, U-937): 7.69 µM
EC50 [2, 14]: 0.1 µM
IC50 [2, 15]: 7.11 µM
EC50 ([2]; Homo sapiens, U-937; read-out: EC50 IP-10): 7.69 µM
EC50 ([3]; Homo sapiens, U-937, read-out: EC50 MCP-1, U937 cells infected with H1N1): 6.25 µM
EC50 ([3]; Homo sapiens, U-937, read-out: EC50 MCP-1, secondary screen, Supplemental Table 1): 0.03 µM
IC50 [3, 16]: 6.3 µM
EC50 ([4]; Homo sapiens, U-937): 7.14 µM
EC50 ([5]; Homo sapiens, U-937): 0.017 µM
EC50 ([6]; Homo sapiens, U-937): 0.478 µM
EC50 [7, 17]: 0.215 µM
EC50 [8, 14]: 0.057 µM
EC50 [9, 18]: 0.714 µM
JAK2 activity (JAK2; cell-free kinase assay): inhibited
p38 kinase activity in vitro (p38): failed to inhibit
IC50 (p38): > 100 µM
phosphorylation of p38 [10]: suppress
IC50 [10]: 5.3 µM
STAT1 phosphorylation levels [11]: significantly reduced
maximum non-toxic concentration (U937 cells): 50 µM
CC50 at 48 h (in vitro): 100 µM
CC50 (in vitro; [19]): 13.5 µM
IC50 (JAK1): 0.43 µM
JAK1 activity (JAK1): inhibited

Cc1nc(Nc2ncc(C(=O)Nc3c(C)cccc3Cl)s2)cc(N2CCN(CCO)CC2)n1 [Dasatinib]
IC50 ([1]; Homo sapiens, U-937): 1.9 µM
EC50 [1, 13]: 2.06 µM
EC50 ([1]; Homo sapiens, U-937): 1.89 µM
EC50 ([2]; Homo sapiens, U-937, U937 cells infected with H1N1; read-out: EC50 IP-10): 1.16 µM
EC50 [2, 20]: 1.3 µM
EC50 ([3]; Homo sapiens, U-937, U937 cells infected with H1N1; read-out: EC50 MCP-1): 0.19 µM
EC50 [3, 21]: 0.14 µM
IC50 ([3]; Homo sapiens, U-937; production of MCP-1 in U937 cells infected with influenza virus; Table 4; read-out: IC50 MCP-1): 0.19 µM
EC50 ([4]; Homo sapiens, U-937): 0.73 µM
EC50 ([5]; Homo sapiens, U-937): 0.017 µM
EC50 ([6]; Homo sapiens, U-937): 0.018 µM
EC50 [7, 17]: 0.135 µM
EC50 [8, 14]: 0.014 µM
EC50 [9, 18]: 0.044 µM
IC50 [10]: 1 µM
STAT1 phosphorylation levels [11]: significantly reduced
CC50 (U937 cells; [22]): > 100 µM
maximum non-toxic concentration (U937 cells): 1 µM
CC50 (in vitro): > 100 µM
CC50 at 48 h (in vitro): > 100 µM

CCS(=O)(=O)N1CC(CC#N)(n2cc(-c3ncnc4[nH]ccc34)cn2)C1 [Baricitinib]
JAK2 activity (JAK2): inhibited
p38 kinase activity in vitro (p38): failed to inhibit
IC50 (p38): > 1 µM
phosphorylation of p38 [10]: suppress
CC50 at 48 h (in vitro): 5.38 µM
CC50 (in vitro; CC50): > 100 µM

COc1cc(Nc2ncc(F)c(Nc3ccc4c(n3)NC(=O)C(C)(C)O4)n2)cc(OC)c1OC [R406]
EC50 [1]: 0.13 µM
EC50 [1, 23]: 0.82 µM
EC50 ([2]; U937 cells infected with H1N1; read-out: EC50 IP-10): 0.431 µM
EC50 ([2]; secondary screen, Supplemental Table 1; read-out: EC50 IP-10): 3.5 µM
EC50 ([3]; U937 cells infected with H1N1; read-out: EC50 MCP-1): 0.24 µM
EC50 ([3]; secondary screen, Supplemental Table 1; read-out: EC50 MCP-1): 0.27 µM
EC50 [4]: 0.69 µM
EC50 [5]: 0.005 µM
EC50 [6]: 0.062 µM
EC50 ([7]; read-out: EC50 IL-8): 0.088 µM
EC50 ([8]; read-out: EC50 IP-10): 0.09 µM
EC50 ([9]; read-out: EC50 MCP-1): 0.035 µM
CC50 (U937 cells): > 100 µM
CC50 (U937 cells; [22]): > 100 µM
CC50 (U937 cells; U937 cells, Table 1 section H3N2): > 100 µM
CC50 (U937 cells; [23]): > 100 µM

CC(C)(C)Cn1c(N)nc2ccc(-c3[nH]c(C(C)(C)C)nc3-c3ccc(F)cc3)nc21 [LY2228820]
IC50 ([1]; Homo sapiens, U-937): 0.005 µM
EC50 [1, 13]: < 0.005 µM
EC50 [2, 14]: 3.7 µM
EC50 [3, 18]: 2.23 µM
IC50 [3, 16]: 2.2 µM
IC50 (p38): 0.06 µM
CC50 (in vitro; [19]): 50 µM

O=C(NOC[C@H](O)CO)c1ccc(F)c(F)c1Nc1ccc(I)cc1F [PD0325901]
secretion of IL-8 [1]: inhibited
IC50 ([1]; Homo sapiens, U-937): < 0.02 µM
EC50 [1, 13]: < 0.005 µM
EC50 [2, 20]: 0.69 µM
secretion of IP-10 ([2]; at high concentrations, 48 h post-infection): inhibit
EC50 [3, 21]: 0.1 µM
IC50 ([3]; Homo sapiens, U-937; read-out: IC50 MCP-1): < 0.02 µM
secretion of MCP-1 ([3]; different concentrations of PD0325901, 48 h post-infection): inhibited
phosphorylation of p38 [10]: suppress
IC50 [10]: 0.01 µM
phosphorylation of STAT1 proteins [11]: inhibit
phosphorylation level of ERK [12]: decreased
CC50 (in vitro): > 100 µM

Cc1cc(Nc2cc(CN3CCOCC3)c3nc(C)c(Cc4ccc(Cl)cc4F)n3n2)n[nH]1 [LY2784544]
EC50 [1, 13]: < 0.005 µM
EC50 [2, 20]: 0.01 µM
EC50 [3, 21]: < 0.005 µM
CC50 (in vitro; [19]): 26 µM

CC[C@@](C)(Nc1ccnc(-c2c[nH]c3ncccc23)n1)C(=O)NCC(F)(F)F [Decernotinib]
EC50 [1, 13]: 0.02 µM
EC50 [2, 14]: 0.1 µM
IC50 [2, 15]: 0.1 µM
EC50 [3, 18]: 0.05 µM
IC50 (JAK2): 0.09 µM
JAK2 activity (JAK2): inhibited
CC50 (in vitro; [19]): 50 µM
IC50 (JAK1): 0.013 µM
JAK1 activity (JAK1): inhibited
